Values after ≈ are worked out from the molar mass of the structure shown. Where a name gives a salt, the structure may show the parent alone. *1 amine or outer side, *2 acyl side, *3 side chain or, on linkers, in order; H or OH if unused. Where a SMILES comes first, the peptide text is derived from it. Bridges are numbered along the chain shown (N, C = ends). Roman numbers before positions name the chains, in order. [ ]: non-standard residue; d: D form. Actinocin(9to1) = Cc1c2oc3c(C)ccc(C(=O)[*:1])c3nc-2c(C(=O)[*:2])c(N)c1=O; NMeV = CN[C@H](C(=O)O)C(C)C; Sar = CNCC(=O)O
How the values were obtained:
[1] = test system: Human Umbilical Vein Endothelial (HUVEC) cell line; test: cells; conditions: 24 h, read-out: MTT IC 50
[2] = test system: Bacillus Calmette–Guérin (BCG) (1173P2); test: organism not typed; type: cell-based, Mycobacterium bovis
[3] = test system: M. tuberculosis; conditions: cited from earlier work; for activity against mychobacterium tuberculosis: both active and persistent form
[4] = test system: Human Umbilical Vein Endothelial (HUVEC) cell line
[5] = test system: pantothenate synthetase (PanC, Rv3602c); conditions: HTS hits; cited from earlier work
[6] = 48 h, read-out: MIC 48 h, BCG, alamar blue, colour read after 48 h reincubation
[7] = 72 h, read-out: BCG MIC, Table 4, same values as 72 h reading
[8] = 72 h, read-out: MIC 72 h, BCG, alamar blue, colour read after 72 h reincubation
[9] = 72 h, read-out: MIC, Mycobacterium bovis BCG, corresponds to 72 h values

SMILES	IC50 [1] [mg/L]	MIC [2, 6] [mg/L]	MIC [2, 7] [mg/L]	MIC [2, 8] [mg/L]	MIC [2, 9] [mg/L]	other results
NCCCn1ccnc1 [Compound 1i]	441 (≈ 3520 µM)	250 (≈ 2000 µM)	125 (≈ 999 µM)	125 (≈ 999 µM)	–	–
COc1cccc2c1C(=O)c1c(O)c3c(c(O)c1C2=O)C[C@@](O)(C(=O)CO)C[C@@H]3O[C@H]1C[C@H](N)[C@H](O)[C@H](C)O1 [doxorubicin, reference compound]	3.1 (≈ 5.7 µM)	–	–	–	–	–
O=[N+]([O-])c1cn2c(n1)OC[C@@H](OCc1ccc(OC(F)(F)F)cc1)C2 [PA-8242]	–	–	–	–	–	activity against mychobacterium tuberculosis [3]: good in-vitro and in-vivo activity
O=C(O)c1cc2ccccc2oc1=O [Compound 2b, coumarin-3-carboxylic acid]	924 (≈ 4860 µM)	125 (≈ 657 µM)	31.2 (≈ 164 µM)	31.2 (≈ 164 µM)	31.2 (≈ 164 µM)	selectivity indices (SI) [4]: ≥ 10
Nc1ccc(Nc2ccccc2)c2c1C(=O)c1ccccc1C2=O [Compound 1g, 1-amino-4-anilino-9,10-anthraquinone]	344 (≈ 1100 µM)	7.81 (≈ 24.8 µM)	< 3.9	< 3.9	< 3.9	selectivity indices (SI) [4]: ≥ 10
Nc1ccccc1 [Compound 1a]	1040 (≈ 11100 µM)	500 (≈ 5370 µM)	250 (≈ 2680 µM)	250 (≈ 2680 µM)	–	–
CC[C@@H](CO)NCCN[C@@H](CC)CO [ethambutol, Ethambutol, reference compound]	–	–	–	–	–	MIC ([2]; Bacillus, BCG, read-out: MIC of ethambutol, positive control, table footnote, reading time not given): 3.12 mg/L
Nc1ccc2c(c1)Cc1ccccc1-2 [Compound 1e, 2-fluorenamine]	726 (≈ 4010 µM)	31.2 (≈ 172 µM)	11.7 (≈ 64.7 µM)	11.7 (≈ 64.7 µM)	11.7 (≈ 64.7 µM)	selectivity indices (SI) [4]: ≥ 10
Nc1cccc2c1C(=O)c1ccccc1C2=O [Compound 1f, 1-aminoanthraquinone]	14.2 (≈ 63.5 µM)	188 (≈ 840 µM)	7.81 (≈ 35 µM)	7.81 (≈ 35 µM)	7.8 (≈ 34.9 µM)	cytotoxicity in HUVEC cell line [4]: not in acceptable range; MIC ([2]; Mycobacterium bovis BCG, corresponds to 72 h values): 7.81 mg/L (≈ 35 µM)
Cc1cc(C(=O)O)no1 [Compound 2a, 5-methylisoxazole-3-carboxylic acid]	1090 (≈ 8600 µM)	500 (≈ 3930 µM)	125 (≈ 983 µM)	125 (≈ 983 µM)	–	antimycobacterial activity ([2]; BCG): no antimycobacterial activity
CCN(CC)CCOC(=O)C(Cc1cccc2ccccc12)CC1CCCO1 (stereo not shown) [nafronyl oxalate]	–	–	–	–	–	activity against pantothenate synthetase [5]: poor activity
N#Cc1ccccc1N [Compound 1b]	908 (≈ 7680 µM)	500 (≈ 4230 µM)	93.8 (≈ 794 µM)	93.8 (≈ 794 µM)	–	–
C[C@]1(COc2ccc(N3CCC(Oc4ccc(OC(F)(F)F)cc4)CC3)cc2)Cn2cc([N+](=O)[O-])nc2O1 [OPC-676833]	–	–	–	–	–	activity against mychobacterium tuberculosis [3]: good in-vitro and in-vivo activity
O=C(O)/C=C/c1cnc[nH]1 [Compound 1j]	1190 (≈ 8590 µM)	500 (≈ 3620 µM)	500 (≈ 3620 µM)	500 (≈ 3620 µM)	–	antimycobacterial activity ([2]; BCG): no activity
c1ccc2[nH]ccc2c1 [Compound 1c, indole]	573 (≈ 4890 µM)	125 (≈ 1070 µM)	46.9 (≈ 400 µM)	46.9 (≈ 400 µM)	46.9 (≈ 400 µM)	selectivity indices (SI) [4]: ≥ 10; tuberculostatic effect [3]: comparable with Isoniazid
Cc1c2oc3c(C)ccc(C(=O)N[C@@H]4C(=O)N[C@H](C(C)C)C(=O)N5CCC[C@H]5C(=O)N(C)CC(=O)N(C)[C@@H](C(C)C)C(=O)O[C@@H]4C)c3nc-2c(C(=O)N[C@@H]2C(=O)N[C@H](C(C)C)C(=O)N3CCC[C@H]3C(=O)N(C)CC(=O)N(C)[C@@H](C(C)C)C(=O)O[C@@H]2C)c(N)c1=O [actinomycin D] (I: T[dV]P[Sar][NMeV] / II: T[dV]P[Sar][NMeV]; ester I:1-I:C, II:1-II:C; linker I:N-II:N via Actinocin(9to1))	–	–	–	–	–	activity against pantothenate synthetase [5]: poor activity
c1ccc2c(c1)CCN2 [Compound 1d, indoline]	800 (≈ 6710 µM)	31.2 (≈ 262 µM)	7.81 (≈ 65.5 µM)	7.81 (≈ 65.5 µM)	7.81 (≈ 65.5 µM)	–
O=C1c2ccccc2C(=O)N1CCO [Compound 1h, N-(2-Hydroxyethyl)-phthalimide]	842 (≈ 4400 µM)	500 (≈ 2620 µM)	500 (≈ 2620 µM)	500 (≈ 2620 µM)	–	antimycobacterial activity ([2]; BCG): did not show good activity
